In general, IC50 refers to the point on the concentration scale where inhibition reaches its midpoint.

This passage reports IC50 results from US20090163586A1, “Bis-(Sulfonylamino) Derivatives in Therapy 205” (AstraZeneca AB, priority 2007, published 2009).

The test concerns the target T1, human mPGES-1 (Homo sapiens, UniProt O14684).
T1 sequence (O14684 1-152): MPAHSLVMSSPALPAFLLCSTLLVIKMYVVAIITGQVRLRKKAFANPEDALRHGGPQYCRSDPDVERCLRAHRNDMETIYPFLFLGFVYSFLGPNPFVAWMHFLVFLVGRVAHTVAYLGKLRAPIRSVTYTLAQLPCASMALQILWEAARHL
In words: Microsomal prostaglandin E synthase biochemical assay. Particulars: microsome preparation containing human mPGES-1; PGH2 10.8 μM, GSH 2.5 mM, pH 6.8; PGE2 by HTRF; average of at least n=2. The protocol: Compounds were tested as inhibitors of microsomal prostaglandin E synthase activity in microsomal prostaglandin E synthase assays and whole cell assays. These assays measure prostaglandin E2 (PGE2) synthesis which is taken as a measure of prostaglandin E synthase activity. Microsomal prostaglandin E synthase biochemical assays used microsomal prostaglandin E synthase-1 in microsomal preparations. The source of the microsomes can be for example interleukin-1β-stimulated human A549 cells (which express human mPGES-1) or Sf9 cells transfected with plasmids encoding human mPGES-1 cDNA. The whole blood assay [described by Patrignani, P. et al., Journal of Pharmacology and Experimental Therapeutics, 1994, vol. 271, pp 1705-1712] was used as the whole cell assay for testing the compounds. Whole blood provides a protein and cell rich milieu for the study of biochemical efficacy of anti-inflammatory compounds such as prostaglandin synthase inhibitors. To study the inhibitory activities of these compounds, human blood was stimulated with lipopolysaccharide (LPS) for typically 16 hours to induce mPGES-1 expression, after which the concentration of produced PGE2 was measured by competitive-immuno assay (homogeneous time-resolved fluorescence, HTRF) as read out for effectiveness against mPGES-1-dependent PGE2 production.
Microsomal Prostaglandin E Synthase Biochemical Assay
A solution of test compound was added to a diluted microsome preparation containing human mPGES-1 and pre-incubated for 15 minutes in potassium phosphate buffer pH 6.8 with cofactor glutathione (GSH). Corresponding solutions without test compound were used as positive controls, and corresponding solutions without test compound and without microsomes were used as negative controls. The enzymatic reaction was then started by addition of the substrate PGH2 in an organic solution (dry acetonitrile).
The typical reaction conditions of the enzymatic reaction were thus: Test compound: ranging from 60 μM to 0.002 μM, or zero in positive and negative controls; potassium phosphate buffer pH 6.8: 50 mM; GSH: 2.5 mM; mPGES-1-containing microsomes: 2 μg/mL (sample and positive controls) or 0 μg/mL (negative control); PGH2: 10.8 μM; Acetonitrile: 7.7% (v/v); DMSO: 0.6% (v/v). The reaction was stopped after one minute by adding an acidic solution (pH 1.9) of ferric chloride and citrate (final concentrations 7 mM and 47 mM respectively), by which the PGH2 was sequestered (the PGH2 is reduced to mainly 12-hydroxy heptadecatrineoic acid (12-HHT) which is not detected by the subsequent PGE2 detection step). The resulting solution was then pH neutralized by addition of potassium phosphate buffer, prior to diluting an aliquot of the resulting solution in a weak potassium phosphate buffer (50 mM, pH 6.8) containing 0.2% BSA (w/v). [Adapted from Jacobsson et al., Proc. Natl. Acad. Sci. USA, 1999, vol. 96, pp. 7220-7225]The PGE2 formed was quantified by use of a commercial HTRF based kit (catalogue #62PG2PEC or #62P2APEC from Cisbio International). 100% activity was defined as the PGE2 production in positive controls subtracted by the PGE2 production in the negative controls. IC50 values were then determined using standard procedures.
The potency is expressed as IC50 and the value indicated is an average of at least n=2.
For orientation: TR-FRET usually uses a lanthanide donor and a delayed reading to cut background.

Compound `N#Cc1ccc(/C=C/S(=O)(=O)Nc2cccc(F)c2S(N)(=O)=O)cc1` [Example 32, 2-[[(E)-2-(4-Cyanophenyl)ethenyl]sulfonylamino]-6-fluoro-benzenesulfonamide] came in with an IC50 of 5100 nM.
On to `N#Cc1ccc(/C=C/S(=O)(=O)Nc2ccccc2S(N)(=O)=O)cc1` [Example 33, 2-[[(E)-2-(4-Cyanophenyl)ethenyl]sulfonylamino]benzenesulfonamide], for which the IC50 was 1100 nM.
For `NS(=O)(=O)c1ccc(F)cc1NS(=O)(=O)/C=C/c1ccc(-c2ccco2)cc1` [Example 34, 4-Fluoro-2-[[(E)-2-[4-(2-furyl)phenyl]ethenyl]sulfonylamino]benzenesulfonamide], it took 120 nM to reach half-maximal inhibition (IC50). Compared with the last compound, the IC50 is about 9.2-fold lower.
`NS(=O)(=O)c1cc(F)ccc1NS(=O)(=O)/C=C/c1ccc(-c2ccco2)cc1` [Example 35, 5-Fluoro-2-[[(E)-2-[4-(2-furyl)phenyl]ethenyl]sulfonylamino]benzenesulfonamide] came in with an IC50 of 170 nM.
Consider `NS(=O)(=O)c1c(F)cccc1NS(=O)(=O)/C=C/c1ccc(-c2ccco2)cc1` [Example 36, 2-Fluoro-6-[[(E)-2-[4-(2-furyl)phenyl]ethenyl]sulfonylamino]benzenesulfonamide], for which the IC50 came to 57 nM. Against the preceding compound, the IC50 is about 3-fold lower.
In the case of `CSc1ccc(/C=C/S(=O)(=O)Nc2cc(F)ccc2S(N)(=O)=O)cc1` [Example 37, 4-Fluoro-2-[[(E)-2-(4-methylsulfanylphenyl)ethenyl]sulfonylamino]-benzenesulfonamide], the IC50 was found to be 160 nM.
On to `CSc1ccc(/C=C/S(=O)(=O)Nc2ccc(F)cc2S(N)(=O)=O)cc1` [Example 38, 5-Fluoro-2-[[(E)-2-(4-methylsulfanylphenyl)ethenyl]sulfonylamino]-benzenesulfonamide], for which the IC50 was found to be 220 nM. The IC50 values of the last two compounds are within 1.5-fold of each other.
For `CSc1ccc(/C=C/S(=O)(=O)Nc2cccc(F)c2S(N)(=O)=O)cc1` [Example 39, 2-Fluoro-6-[[(E)-2-(4-methylsulfanylphenyl)ethenyl]sulfonylamino]-benzenesulfonamide], the half-inhibitory concentration (IC50) was 1400 nM.
`CSc1ccc(/C=C/S(=O)(=O)Nc2ccccc2S(N)(=O)=O)cc1` [Example 40, 2-[[(E)-2-(4-Methylsulfanylphenyl)ethenyl]sulfonylamino]benzenesulfonamide] showed a half-inhibitory concentration (IC50) of 1200 nM.
Turning to `NS(=O)(=O)c1ccc(F)cc1NS(=O)(=O)/C=C/c1ccc(OC(F)F)cc1` [Example 41, 2-[[(E)-2-[4-(Difluoromethoxy)phenyl]ethenyl]sulfonylamino]-4-fluoro-benzenesulfonamide], the IC50 was 1100 nM. This IC50 and that of the compound before are within 1.5-fold of each other.
The compound `NS(=O)(=O)c1cc(F)ccc1NS(=O)(=O)/C=C/c1ccc(OC(F)F)cc1` [Example 42, 2-[[(E)-2-[4-(Difluoromethoxy)phenyl]ethenyl]sulfonylamino]-5-fluoro-benzenesulfonamide] yielded a 50% inhibitory concentration (IC50) of 1600 nM.
The figure for `NS(=O)(=O)c1c(F)cccc1NS(=O)(=O)/C=C/c1ccc(OC(F)F)cc1` [Example 43, 2-[[(E)-2-[4-(Difluoromethoxy)phenyl]ethenyl]sulfonylamino]-6-fluoro-benzenesulfonamide] is 110 nM; for `NS(=O)(=O)c1cc(CO)ccc1NS(=O)(=O)CCc1ccc(Cl)cc1` [Example 44, 2-[2-(4-Chlorophenyl)ethylsulfonylamino]-5-(hydroxymethyl)benzenesulfonamide] it is 750 nM.
`Cc1ccc(NS(=O)(=O)CCc2ccc(Cl)cc2)c(S(N)(=O)=O)c1` [Example 45, 2-[2-(4-Chloro-phenyl)-ethanesulfonylamino]-5-methylbenzenesulfonamide]: the IC50 is 1300 nM.
The figure for `NS(=O)(=O)c1cc(OCc2ccccn2)ccc1NS(=O)(=O)CCc1ccc(Cl)cc1` [Example 46, 2-[2-(4-Chlorophenyl)ethylsulfonylamino]-5-(pyridin-2-ylmethoxy)benzenesulfonamide] is 1100 nM; for `Cc1nnc(COc2ccc(NS(=O)(=O)CCc3ccc(Cl)cc3)c(S(N)(=O)=O)c2)o1` [Example 47, 2-[2-(4-Chlorophenyl)ethylsulfonylamino]-5-[(5-methyl-1,3,4-oxadiazol-2-yl)methoxy]benzenesulfonamide] it is 1600 nM; for `NS(=O)(=O)c1ccccc1NS(=O)(=O)/C=C/c1ccccc1Cl` [Example 48, 2-[2-(2-Chloro-phenyl)-ethenesulfonylamino]-benzenesulfonamide] it is 590 nM.
The compound `COc1cc(Cl)ccc1/C=C/S(=O)(=O)Nc1ccccc1S(N)(=O)=O` [Example 49, 2-[2-(4-Chloro-2-methoxy-phenyl)-ethenesulfonylamino]-benzenesulfonamide] yielded an IC50 of 36 nM.
In turn, `NS(=O)(=O)c1c(F)cccc1NS(=O)(=O)/C=C/c1ccc(-c2ccccc2)cc1` [Example 50, 2-Fluoro-6-[[(E)-2-(4-phenylphenyl)ethenyl]sulfonylamino]benzenesulfonamide] gave an IC50 of 130 nM.
The figure for `NS(=O)(=O)c1cc(F)ccc1NS(=O)(=O)/C=C/c1cccc(Cl)c1` [Example 51, 2-[[(E)-2-(3-Chlorophenyl)ethenyl]sulfonylamino]-5-fluoro-benzenesulfonamide] is 4900 nM; for `NS(=O)(=O)c1cc(F)ccc1NS(=O)(=O)/C=C/c1ccc(-c2ccccc2)cc1` [Example 52, 5-Fluoro-2-[[(E)-2-(4-phenylphenyl)ethenyl]sulfonylamino]benzenesulfonamide] it is 84 nM.
In the case of `NS(=O)(=O)c1ccc(F)cc1NS(=O)(=O)/C=C/c1ccc(-c2ccccc2)cc1` [Example 53, 4-Fluoro-2-[[(E)-2-(4-phenylphenyl)ethenyl]sulfonylamino]benzenesulfonamide], 160 nM corresponded to half-maximal inhibition (IC50).
The result for `NS(=O)(=O)c1cc(F)ccc1NS(=O)(=O)/C=C/c1cccc(C(F)(F)F)c1` [Example 54, 5-Fluoro-2-[[(E)-2-[3-(trifluoromethyl)phenyl]ethenyl]sulfonylamino]-benzenesulfonamide] reads 270 nM; that for `COc1ccccc1/C=C/S(=O)(=O)Nc1ccc(F)cc1S(N)(=O)=O` [Example 55, 5-Fluoro-2-[[(E)-2-(2-methoxyphenyl)ethenyl]sulfonylamino]benzenesulfonamide], 360 nM.
`NS(=O)(=O)c1c(F)cccc1NS(=O)(=O)/C=C/c1cccc(Cl)c1` [Example 56, 2-[[(E)-2-(3-Chlorophenyl)ethenyl]sulfonylamino]-6-fluoro-benzenesulfonamide] showed an IC50 of 530 nM.
For the compound `COc1ccccc1/C=C/S(=O)(=O)Nc1cccc(F)c1S(N)(=O)=O` [Example 57, 2-Fluoro-6-[[(E)-2-(2-methoxyphenyl)ethenyl]sulfonylamino]benzenesulfonamide], it took 620 nM to reach half-maximal inhibition (IC50).
In the case of `COc1ccccc1/C=C/S(=O)(=O)Nc1cc(F)ccc1S(N)(=O)=O` [Example 58, 4-Fluoro-2-[[(E)-2-(2-methoxyphenyl)ethenyl]sulfonylamino]benzenesulfonamide], the IC50 worked out at 300 nM.
Compound `NS(=O)(=O)c1cccc(F)c1NS(=O)(=O)/C=C/c1ccc(-c2ccccc2)cc1` [Example 59, 3-Fluoro-2-[[(E)-2-(4-phenylphenyl)ethenyl]sulfonylamino]benzenesulfonamide] showed an IC50 of 2300 nM.
As for `COc1ccccc1/C=C/S(=O)(=O)Nc1c(F)cccc1S(N)(=O)=O` [Example 60, 3-Fluoro-2-[[(E)-2-(2-methoxyphenyl)ethenyl]sulfonylamino]benzenesulfonamide], the midpoint of inhibition, the IC50, lay at 2400 nM.
Turning to `NS(=O)(=O)c1ccc(F)cc1NS(=O)(=O)/C=C/c1cccc(C(F)(F)F)c1` [Example 61, 4-Fluoro-2-[[(E)-2-[3-(trifluoromethyl)phenyl]ethenyl]sulfonylamino]-benzenesulfonamide], the midpoint of inhibition, the IC50, lay at 2400 nM.
As for `NS(=O)(=O)c1c(F)cccc1NS(=O)(=O)/C=C/c1ccccc1F` [Example 62, 2-Fluoro-6-[[(E)-2-(2-fluorophenyl)ethenyl]sulfonylamino]benzenesulfonamide], the half-inhibitory concentration (IC50) is 2500 nM.
